Measured values taken from article PMC5914528 (Molecular microbiology, 2018).

Experiments:
[1] = target: T1, QscR (Pseudomonas aeruginosa, UniProt G3XD77); assay type: cell-based; details: for Activation (%): 100% = activity of 3OC12-HSL
[2] = target: T1, QscR; details: DNA binding of QscR with ligand; Eqn 5
[3] = target: LasR (Pseudomonas aeruginosa, UniProt P25084); assay: LasR agonism/antagonism assay, E. coli reporter strain; assay type: cell-based; details: Table S2 (supplement not shown)
LasR, sequence (P25084 whole entry): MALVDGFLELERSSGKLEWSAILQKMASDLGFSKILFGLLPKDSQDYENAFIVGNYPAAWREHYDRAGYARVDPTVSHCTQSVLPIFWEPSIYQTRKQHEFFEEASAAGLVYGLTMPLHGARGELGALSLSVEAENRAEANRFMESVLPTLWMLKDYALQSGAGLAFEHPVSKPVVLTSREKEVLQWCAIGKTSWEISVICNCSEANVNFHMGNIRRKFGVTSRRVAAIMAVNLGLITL

| SMILES | Activation (%) [1] [%] | Hill coefficient [2] | EC50 ([1]; E. coli JLD271 QscR reporter) [nM] | activity on LasR in cell-based reporter assays [3] |
| --- | --- | --- | --- | --- |
| CCCCCCCCCC(=O)CC(=O)N[C@H]1CCOC1=O [3OC12-HSL, N-(3-oxododecanoyl) L-homoserine lactone] | 100 | 1.7 ± 0.4 |  |  |
| O=C(CCCOc1ccc(Cl)cc1)NC1CCOC1=O (stereo not drawn) [CL] | 86 | 1.9 ± 0.3 | 16 | inhibited |
